Assay results reported in patent publication US20250154135A1, “M-CHOLINE RECEPTOR AGONIST COMPOUND, PREPARATION METHOD THEREFOR AND USE THEREOF” (NANJING GRITPHARMA CO., LTD., priority 2022, published 2025).

Columns and labels:
[1] = Stability tests on compound starting materials (HPLC related substances); assay type: physicochemical; details: for (Z-A) impurity A isopilocarpine / (Z-B) impurity B pilocarpic acid / (Z-C) impurity C isopilocarpic acid / Maximum single impurity / Total impurity: starting material
Method: Samples: compound 1, compound 2 and pilocarpine hydrochloride starting material solid particles.
High-temperature test: 1 g of each of compound 1, compound 2 and pilocarpine hydrochloride starting materials were taken and placed in an open container inside a constant temperature device at 40° C.; samples were taken at time points of day 0 and day 5, and then tested according to the key stability examination items. The stability of the active pharmaceutical ingredient itself and the trend of changes in stability under the conditions of influencing factor tests were observed.
Strong light irradiation test: 1 g of each of compound 1, compound 2 and pilocarpine hydrochloride starting materials were taken and placed in an open container inside a light irradiation box, with the illumination set at 4500 lx±500 lx; samples were taken at time points of day 0 and day 5, and then tested according to the key stability examination items.
High-humidity test: 1 g of each of compound 1, compound 2 and pilocarpine hydrochloride starting materials was taken and placed in an open container inside a constant humidity closed container at 25° C. and with a relative humidity of 75%±5%; samples were taken at day 0 and day 5, and then tested according to the requirements of the key stability examination items.
According to the records in the European Pharmacopoeia (EP), the key related substances to be examined for pilocarpine include: impurity A isopilocarpine (Z-A), impurity B pilocarpic acid (Z-B), and impurity C isopilocarpic acid (Z-C). The samples taken at different time points from the above high-temperature test, strong light irradiation test and high-humidity test were separately tested using high-performance liquid chromatography to observe the trend of changes in stability under the conditions of the influencing factor tests.
The related substances were determined according to the high-performance liquid chromatography (General Chapter 0512, Chinese Pharmacopoeia, Volume IV, 2020 Edition).
Test sample solution: an appropriate amount of each test sample was precisely weighed, dissolved in water, and diluted to prepare a solution containing 1 mg of test sample per 1 mL.
Chromatographic conditions: octadecyl bonded silica gel was used as a filler [kromasil 100-5-C18 column (4.0 mm×[…]) or a chromatographic column with equivalent performance], 0.679 g/L tetrabutylammonium dihydrogen phosphate-methanol-acetonitrile (885:55:60) (adjusted to pH 7.7 with dilute aqueous ammonia) was used as mobile phase A, and acetonitrile-water (80:20) was used as mobile phase B; gradient elution was performed according to Table 6-1, with a column temperature of 30° C., a flow rate of 1.0 mL/min, a detection wavelength of 220 nm, and a sample injection volume of 20 μL.

[2] = Determination of salt-forming ratios of pilocarpine salt formulations (HPLC); assay type: physicochemical
Method: The determination of the salt-forming ratios of the pilocarpine salt formulations was performed using high-performance liquid chromatography with the following conditions: chromatographic column: C18 column; sample injection volume: 10 μL; mobile phase: K2HPO4 (adjusted to pH 6.50±0.1 with phosphoric acid)-methanol-acetonitrile (63:2:35); flow rate: 0.7 mL/min; column temperature: 30° C.; detection wavelength: 215 nm; […] determination was performed, and the salt-forming ratios were calculated according to the peak areas of free acid radicals and pilocarpine.
The samples were separately injected to determine the salt-forming ratios of different compound 1 formulations. Meanwhile, the salt-forming ratios of the compound 1 formulation solutions with different pH values under different conditions were determined using the above stability examination methods.
The samples were separately injected to determine the salt-forming ratios of different compound 2 formulations. Meanwhile, the salt-forming ratios of the compound 2 formulation solutions with different pH values under different conditions were determined using the above stability examination methods.

Q: For `CC[C@@H]1C(=O)OC[C@@H]1Cc1cncn1C` [Compound 1], which “impurity increasing rate compared to pilocarpine hydrochloride starting material” value ([1]; 40° C. and high light irradiation) is on record?
A: comparable to those of the pilocarpine hydrochloride starting material

Q: And the “impurity increasing rate compared to pilocarpine hydrochloride starting material” value ([1]; 5 days, high humidity (RH 75%))?
A: significantly slower than those of the pilocarpine hydrochloride

Q: What about the “(Z-A) impurity A isopilocarpine” value ([1]; 40° C.-5 days) of the same molecule?
A: 0.365%

Q: And the “(Z-B) impurity B pilocarpic acid” value ([1]; 40° C.-5 days)?
A: 0%

Q: And the “(Z-C) impurity C isopilocarpic acid” value ([1]; 40° C.-5 days)?
A: 0%

Q: What about the Maximum single impurity ([1]; 40° C.-5 days) of the same molecule?
A: 0%

Q: What about the Total impurity ([1]; 40° C.-5 days) of the same molecule?
A: 0.365%

Q: And the “(Z-A) impurity A isopilocarpine” value ([1]; Day 0)?
A: 0.328%

Q: And the “(Z-B) impurity B pilocarpic acid” value ([1]; Day 0)?
A: 0%

Q: And the “(Z-C) impurity C isopilocarpic acid” value ([1]; Day 0)?
A: 0%

Q: And the Maximum single impurity ([1]; Day 0)?
A: 0%

Q: And the Total impurity ([1]; Day 0)?
A: 0.328%

Q: And the “(Z-A) impurity A isopilocarpine” value ([1]; Light-5 days (4500 lx))?
A: 0.329%

Q: And the “(Z-B) impurity B pilocarpic acid” value ([1]; Light-5 days (4500 lx))?
A: 0%

Q: What about the “(Z-C) impurity C isopilocarpic acid” value ([1]; Light-5 days (4500 lx)) of the same molecule?
A: 0%

Q: What about the Maximum single impurity ([1]; Light-5 days (4500 lx)) of the same molecule?
A: 0%

Q: And the Total impurity ([1]; Light-5 days (4500 lx))?
A: 0.329%

Q: And the “(Z-A) impurity A isopilocarpine” value ([1]; RH 75%-5 days, 25° C.)?
A: 0.310%

Q: And the “(Z-B) impurity B pilocarpic acid” value ([1]; RH 75%-5 days, 25° C.)?
A: 0%

Q: And the “(Z-C) impurity C isopilocarpic acid” value ([1]; RH 75%-5 days, 25° C.)?
A: 0%

Q: And the Maximum single impurity ([1]; RH 75%-5 days, 25° C.)?
A: 0%

Q: And the Total impurity ([1]; RH 75%-5 days, 25° C.)?
A: 0.331%

Q: And the “salt-forming ratios of the formulations” value ([2]; different conditions)?
A: substantially stable

Q: What about the Salt-forming ratio ([2]; formulation pH 3.6, 0 d) of the same molecule?
A: 1.19

Q: And the Salt-forming ratio ([2]; formulation pH 3.6, 40° C./5 d)?
A: 1.08

Q: What about the Salt-forming ratio ([2]; formulation pH 3.6, 40° C./10 d) of the same molecule?
A: 1.09

Q: And the Salt-forming ratio ([2]; formulation pH 3.6, 60° C./5 d)?
A: 1.15

Q: And the Salt-forming ratio ([2]; formulation pH 3.6, 60° C./10 d)?
A: 1.24

Q: What about the Salt-forming ratio ([2]; formulation pH 3.6, Light irradiation/5 d) of the same molecule?
A: 1.06

Q: What about the Salt-forming ratio ([2]; formulation pH 3.6, Light irradiation/10 d) of the same molecule?
A: 1.06

Q: And the Salt-forming ratio ([2]; formulation pH 4.1, 0 d)?
A: 1.03

Q: What about the Salt-forming ratio ([2]; formulation pH 4.1, 40° C./5 d) of the same molecule?
A: 1.06

Q: What about the Salt-forming ratio ([2]; formulation pH 4.1, 40° C./10 d) of the same molecule?
A: 1.06

Q: And the Salt-forming ratio ([2]; formulation pH 4.1, 60° C./5 d)?
A: 1.09

Q: What about the Salt-forming ratio ([2]; formulation pH 4.1, 60° C./10 d) of the same molecule?
A: 1.10

Q: What about the Salt-forming ratio ([2]; formulation pH 4.1, Light irradiation/5 d) of the same molecule?
A: 1.04

Q: What about the Salt-forming ratio ([2]; formulation pH 4.1, Light irradiation/10 d) of the same molecule?
A: 1.04

Q: What about the Salt-forming ratio ([2]; formulation pH 4.7, 0 d) of the same molecule?
A: 1.03

Q: What about the Salt-forming ratio ([2]; formulation pH 4.7, 40° C./5 d) of the same molecule?
A: 1.04

Q: What about the Salt-forming ratio ([2]; formulation pH 4.7, 40° C./10 d) of the same molecule?
A: 1.02

Q: And the Salt-forming ratio ([2]; formulation pH 4.7, 60° C./5 d)?
A: 1.02

Q: What about the Salt-forming ratio ([2]; formulation pH 4.7, 60° C./10 d) of the same molecule?
A: 1.00

Q: What about the Salt-forming ratio ([2]; formulation pH 4.7, Light irradiation/5 d) of the same molecule?
A: 1.03

Q: And the Salt-forming ratio ([2]; formulation pH 4.7, Light irradiation/10 d)?
A: 1.03

Q: What about the Salt-forming ratio ([2]; formulation pH 4.8, 0 d) of the same molecule?
A: 1.02

Q: What about the Salt-forming ratio ([2]; formulation pH 4.8, 40° C./5 d) of the same molecule?
A: 1.04

Q: And the Salt-forming ratio ([2]; formulation pH 4.8, 40° C./10 d)?
A: 1.02

Q: What about the Salt-forming ratio ([2]; formulation pH 4.8, 60° C./5 d) of the same molecule?
A: 0.99

Q: And the Salt-forming ratio ([2]; formulation pH 4.8, 60° C./10 d)?
A: 0.97

Q: What about the Salt-forming ratio ([2]; formulation pH 4.8, Light irradiation/5 d) of the same molecule?
A: 1.03

Q: And the Salt-forming ratio ([2]; formulation pH 4.8, Light irradiation/10 d)?
A: 1.02

Q: And the Salt-forming ratio ([2]; formulation pH 5.1, 0 d)?
A: 1.02

Q: And the Salt-forming ratio ([2]; formulation pH 5.1, 40° C./5 d)?
A: 1.03

Q: What about the Salt-forming ratio ([2]; formulation pH 5.1, 40° C./10 d) of the same molecule?
A: 1.01

Q: What about the Salt-forming ratio ([2]; formulation pH 5.1, 60° C./5 d) of the same molecule?
A: 0.97

Q: What about the Salt-forming ratio ([2]; formulation pH 5.1, 60° C./10 d) of the same molecule?
A: 0.92

Q: What about the Salt-forming ratio ([2]; formulation pH 5.1, Light irradiation/5 d) of the same molecule?
A: 1.03

Q: And the Salt-forming ratio ([2]; formulation pH 5.1, Light irradiation/10 d)?
A: 1.02

Q: What about the Salt-forming ratio ([2]; formulation pH 5.6, 0 d) of the same molecule?
A: 1.02

Q: And the Salt-forming ratio ([2]; formulation pH 5.6, 40° C./5 d)?
A: 1.01

Q: And the Salt-forming ratio ([2]; formulation pH 5.6, 40° C./10 d)?
A: 0.98

Q: And the Salt-forming ratio ([2]; formulation pH 5.6, 60° C./5 d)?
A: 0.91

Q: What about the Salt-forming ratio ([2]; formulation pH 5.6, 60° C./10 d) of the same molecule?
A: 0.85

Q: What about the Salt-forming ratio ([2]; formulation pH 5.6, Light irradiation/5 d) of the same molecule?
A: 1.02

Q: What about the Salt-forming ratio ([2]; formulation pH 5.6, Light irradiation/10 d) of the same molecule?
A: 1.01
